Assay [1] concerns the target T1, MAO B (Homo sapiens, UniProt P27338).
T1 construct: expressed in transfected cells; host or cells: COS-7 (African green monkey), riboflavin-containing (Rib+) or riboflavin-depleted (Rib-), transient electroporation
T1 sequence (P27338 1-520): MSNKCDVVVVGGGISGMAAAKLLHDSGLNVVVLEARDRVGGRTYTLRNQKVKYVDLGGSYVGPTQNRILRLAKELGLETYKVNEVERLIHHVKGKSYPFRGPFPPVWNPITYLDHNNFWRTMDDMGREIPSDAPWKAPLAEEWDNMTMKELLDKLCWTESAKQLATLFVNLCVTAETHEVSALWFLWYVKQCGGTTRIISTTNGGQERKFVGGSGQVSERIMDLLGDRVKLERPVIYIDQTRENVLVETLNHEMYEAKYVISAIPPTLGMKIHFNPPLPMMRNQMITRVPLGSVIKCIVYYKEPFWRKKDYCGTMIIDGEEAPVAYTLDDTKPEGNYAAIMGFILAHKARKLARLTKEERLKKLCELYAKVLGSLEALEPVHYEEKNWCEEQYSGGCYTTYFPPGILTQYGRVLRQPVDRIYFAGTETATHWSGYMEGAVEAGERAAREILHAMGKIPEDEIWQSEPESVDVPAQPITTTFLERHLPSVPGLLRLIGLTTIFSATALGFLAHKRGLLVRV
The assay is described as follows: FAD coupling in intact cells: MAO B enzymatic activity after electroporation of MAO B cDNA with cofactor into Rib^- COS-7 cells ([^14 C] benzylamine substrate). In kind it is cell-based. Further details: Percent of Holo-MAO B Activity: concentration or dose not given beside the values. Conditions: for restoration of active MAO B (in words): cofactor added with MAO B cDNA during electroporation; for Enzymatic Activity: cofactor added with MAO B cDNA into Rib^- COS-7 cells, 48 hours, mean ± SE, three experiments; for Percent of Holo-MAO B Activity: relative to holo-MAO B expressed in Rib^+ COS-7 cells, 2880 min. The method, then:
(§1) Wild-type or mutant MAO B cDNAs were transiently transfected into COS-7 cells by electroporation (23) as previously described (18). Briefly, Rib^+ - or Rib^- COS-7 cells were harvested during late log phase growth and resuspended to a concentration of 3.1×10^6 cells/ml in either riboflavin-containing or riboflavin-free medium, respectively. Wild-type or mutant MAO B cDNAs ([…]) were added to 0.8 ml of cell suspension. […] Electroporation was carried out in a Bio-Rad Gene Pulser with a setting of 250 V and 500 μF. Cells were resuspended in 15 ml of riboflavin-containing or riboflavin-free medium and incubated at 37° C. with 5% CO2. Transfected COS-7 cells were harvested at 48 hours and homogenized in a lysis solution containing 20 mM Tris-HCl, 1 mM EDTA, 0.5 mM PMSF, pH 8.0. The homogenate was diluted with an equal volume of the same buffer supplemented with 300 mM NaCl to obtain a 150 mM final NaCl concentration. Triton X-100 (Pierce) was added to the lysate to give a final concentration of 0.25%, and the samples were allowed to stir for 50 min. at 4° C. to extract MAO B from the outer mitochondrial membrane. After Triton extraction, the lysate was centrifuged at 1300×g for 5 min. at 4° C. to remove insoluble cell debris.
MAO B activity was assayed radiometrically by a modification of the method of Wurtman and Axelrod (26) as described previously (18). Briefly, the reaction mixture contained 200 μl of 50 mM sodium phosphate buffer (pH 7.4), 3.6 nmole of 55 mCi/mmol [^14 C] benzylamine hydrochloride (Amersham), 10 nmoles of unlabeled benzylamine and 10 μl of cell lysate. Samples were run in triplicate, and one out of each set was denatured with […] of 6N HCl prior to the addition of substrate to serve as an internal control. All reactions were incubated for 9 minutes at 37° C., and terminated by the addition of 25 μl of 6N HCl. The reaction product was extracted with 500 μl of toluene, and an aliquot (200 μl) of the organic phase from each sample was counted in liquid scintillation fluid (Bio-Safe) in a Beckman LB 3801 scintillation counter.
FMN or riboflavin were also capable of restoring approximately 75% of MAO B holoenzyme activity. However, only 40% of MAO B holoenzyme activity was obtained by the addition of 8α-hydroxyriboflavin.
Various cofactors were added with MAO B cDNA into Rib^- COS7 cells

In assay [2] the target is T1, MAO B. The assay is described as follows: Quantitation of expressed MAO B protein by ELISA in transfected COS-7 cells. In kind it is cell-based. More on the design: MAO B Expressed: unit not given here. Conditions: cofactor added with MAO B cDNA into Rib^- COS-7 cells; 48 hours; mean ± SE, three experiments. On the procedure:
Total protein concentrations of samples containing MAO B holoenzyme, apoenzyme, or variant MAO Bs were determined by a MicroBCA kit (Pierce). All samples were then adjusted to equal protein concentrations and assayed for MAO B protein by ELISA using a modification of the method of Yeomanson and Billett (25) as described previously (18).
MAO B cDNA was expressed sequentially at different time intervals in these cells during this riboflavin depletion process (FIG. 2). Each data point in FIG. 2 represents an individual expression assay. For each assay, a sample of COS-7 cells grown in riboflavin-free medium were transfected with MAO B cDNA via electroporation. Concurrently, Rib^+ COS-7 cells were transfected with MAO B cDNA to serve as a control. Following incubation for 48 hours, the cells were homogenized and assays were performed to determine protein concentration, MAO B concentration by ELISA using polyclonal antibodies, and MAO B activity using [^14 C] benzylamine.
An equal amount of MAO B cDNA (15 μg) was expressed in both types of […]

Assay [3] has as its system MAO B. Briefly: [^14 C] FAD incorporation into wild-type or mutant MAO B in Rib^- COS-7 cells (immunoprecipitation, fluorography). Type of assay: binding, human. Conditions: about 59 kDa; equal MAO B concentrations. On the procedure: Mutagenesis was carried out by the method of Deng and Nickoloff (22) using a Transformer Site-directed Mutagenesis kit (Clontech). Glu in position 34 was replaced with Asp (E34D), Gln (E34Q), or Ala (E34A), and Val in position 10 was replaced with Ile (V10I) as described by Kwan et al. (18).
as §1
Transfected Rib^+ - or Rib^- COS-7 cells were homogenized, and extracted with 0.25% Triton X-100 for 50 minutes at 4° C. The cell lysates were centrifuged at 1300×g for 5 minutes, and an aliqout of each supernatant was analyzed for MAO B concentration by ELISA. All supernatants were then adjusted to equal MAO B concentration and incubated with polyclonal goat anti-MAO B antibody (10 μg) overnight at 4° C. Protein-G Sepharose beads (Pierce) were added (50 μl) and incubation was continued for 3 hours. The protein-G Sepharose/goat antibody/MAO B immmunocomplex was collected by centrifugation at 10,000×g for 20 seconds and washed 6 times with 150 μl of 20 mM Tris buffer, pH 8.0. The immunocomplex was then dissolved in SDS-PAGE sample buffer and analyzed by Western blot or fluorography.
The immunoprecipitated proteins (obtained as described above) were subjected to electrophoresis in a 10% SDS-polyacrylamide gel and examined by Western blotting as previously described (18). The immunoprecipitated proteins (obtained as described above) were subjected to electrophoresis in a 10% SDS-polyacrylamide gel. The SDS-PAGE gel was fixed by soaking in 7% acetic acid, 10% methanol, 83% H2 O for 1 hour, and then processed for fluorography as described by Bonner and Laskey (27). The dried gel was exposed to Kodak X-OMAT AR film at -80° C. for 2 weeks.
The expressed wild-type and variant MAO Bs were adjusted to equal concentrations using ELISA before immunoprecipitation, and then analyzed by fluorography. The amount of incorporation of [^14 C] […] FAD was incorporated into the enzyme.

Consider `NC(=O)c1ccc[n+]([C@@H]2O[C@H](COP(=O)(O)OP(=O)(O)OC[C@H]3O[C@@H](n4cnc5c(N)ncnc54)[C@H](O)[C@@H]3O)[C@@H](O)[C@H]2O)c1` [NAD^+], for which, in assay [1], the “restoration of active MAO B (in words)” value is reported as “did not yield active MAO B”, the “Enzymatic Activity” value is 0.02 ± 0.00 μmol benzylamine/minute/mg MAO and the “Percent of Holo-MAO B Activity” value is recorded as 1.8%. For the same molecule, the “MAO B Expressed” value in assay [2] was determined as 1.14 ± 0.06.
The like results for `Cc1cc2nc3c(=O)[nH]c(=O)nc-3n(C[C@H](O)[C@H](O)[C@H](O)CO)c2cc1C` [Riboflavin, riboflavin] were, in that order, “equal levels of MAO B activity”, 0.86 ± 0.06 μmol benzylamine/minute/mg MAO, 76.1% and 0.90 ± 0.13.
Take `Cc1cc2nc3c(=O)[nH]c(=O)nc-3n(C[C@H](O)[C@H](O)[C@H](O)COP(=O)(O)O)c2cc1C` [FMN]: in assay [1], the “restoration of active MAO B (in words)” value was “equal levels of MAO B activity” and the “Enzymatic Activity” value is on record as 0.85 ± 0.03 μmol benzylamine/minute/mg MAO. Also, the “MAO B Expressed” value in assay [2] is given as 0.81 ± 0.17.
For `Cc1cc2nc3c(=O)[nH]c(=O)nc-3n(C[C@H](O)[C@H](O)[C@H](O)CO)c2cc1CO` [8α-OH Rib, 8α-hydroxyriboflavin], the “MAO B activity relative to that obtained with riboflavin” value in assay [1] (Rib^- COS-7 cells) is “about one half of that obtained with the addition of riboflavin”. Also, in assay [1], the “Enzymatic Activity” value is on record as 0.45 ± 0.01 μmol benzylamine/minute/mg MAO and the “Percent of Holo-MAO B Activity” value was found to be 39.8%. For the same molecule, the “Percent of Holo-MAO B Activity” value in assay [1] (listed as 8α-hydroxyriboflavin) is given as 40%. Moreover, the “MAO B Expressed” value in assay [2] came out at 0.95 ± 0.08.

B1: wild-type: wild-type MAO B expressed in Rib^- COS-7 cells (protein, UniProt P27338 2-520, looked up)
Amine oxidase …: SNKCDVVVVGGGISGMAAAKLLHDSGLNVVVLEARDRVGGRTYTLRNQKVKYVDLGGSYVGPTQNRILRLAKELGLETYKVNEVERLIHHVKGKSYPFRGPFPPVWNPITYLDHNNFWRTMDDMGREIPSDAPWKAPLAEEWDNMTMKELLDKLCWTESAKQLATLFVNLCVTAETHEVSALWFLWYVKQCGGTTRIISTTNGGQERKFVGGSGQVSERIMDLLGDRVKLERPVIYIDQTRENVLVETLNHEMYEAKYVISAIPPTLGMKIHFNPPLPMMRNQMITRVPLGSVIKCIVYYKEPFWRKKDYCGTMIIDGEEAPVAYTLDDTKPEGNYAAIMGFILAHKARKLARLTKEERLKKLCELYAKVLGSLEALEPVHYEEKNWCEEQYSGGCYTTYFPPGILTQYGRVLRQPVDRIYFAGTETATHWSGYMEGAVEAGERAAREILHAMGKIPEDEIWQSEPESVDVPAQPITTTFLERHLPSVPGLLRLIGLTTIFSATALGFLAHKRGLLVRV
Regarding B1, in assay [3], the “[^14 C] FAD incorporation (band on fluorogram)” value was “dark band”.

B2: V10I: control variant, Val in position 10 replaced with Ile (protein, UniProt P27338 2-520, looked up, variant V10I)
Amine oxidase …: SNKCDVVVIGGGISGMAAAKLLHDSGLNVVVLEARDRVGGRTYTLRNQKVKYVDLGGSYVGPTQNRILRLAKELGLETYKVNEVERLIHHVKGKSYPFRGPFPPVWNPITYLDHNNFWRTMDDMGREIPSDAPWKAPLAEEWDNMTMKELLDKLCWTESAKQLATLFVNLCVTAETHEVSALWFLWYVKQCGGTTRIISTTNGGQERKFVGGSGQVSERIMDLLGDRVKLERPVIYIDQTRENVLVETLNHEMYEAKYVISAIPPTLGMKIHFNPPLPMMRNQMITRVPLGSVIKCIVYYKEPFWRKKDYCGTMIIDGEEAPVAYTLDDTKPEGNYAAIMGFILAHKARKLARLTKEERLKKLCELYAKVLGSLEALEPVHYEEKNWCEEQYSGGCYTTYFPPGILTQYGRVLRQPVDRIYFAGTETATHWSGYMEGAVEAGERAAREILHAMGKIPEDEIWQSEPESVDVPAQPITTTFLERHLPSVPGLLRLIGLTTIFSATALGFLAHKRGLLVRV
For B2, the “[^14 C] FAD incorporation (band on fluorogram)” value in assay [3] is given as “dark band”.
